Assay results taken from US7202287B2, “Method and compositions” (Arch Chemicals, Inc., priority 2000, dated 2007).

What was measured:
[1] = tested on: Aspergillus Niger IMI 17454; experiment: Minimum inhibitory concentration against monocultures (fungus); assay type: cell-based; settings: Example 3, Table 5; biocide alone
Protocol: Aspergillus Niger IMI 17454 The fungus was maintained on malt agar. The MICs were calculated as described previously in examples 1 and 2.

[2] = tested on: Pseudomonas aeruginosa NCIB 10421; experiment: Minimum inhibitory concentration against mono-cultures, microtitre plate doubling dilutions in nutrient broth; assay type: cell-based; settings: 24 hours at 37° C., visual inspection
Protocol: Pseudomonas aeruginosa NCIB 10421 Bacteria were grown to stationary phase (18 h) in nutrient broth (approximately 10^9 organisms per ml). A 0.1% (v/v) inoculum was used to seed fresh medium and 100 μl of the inoculum was then added to each well of a microtitre plate, except for the first well which contained 200 μl. Using doubling dilutions, the concentration of the compounds under investigation were varied in each well along the ordinate axis. The presence or absence of growth was recorded by visual inspection after 24 hours incubation at 37° C. […]

Row | Compound | MIC (ppm) against Aspergillus Niger [1] [ppm] | MIC (ppm) against Ps. aeruginosa ([2]; Example 2, Table 3, biocide alone) [ppm] | MIC (ppm) against Ps. aeruginosa ([2]; Example 1, Table 1, biocide alone) [ppm]
1 | CCCCn1sc2ccccc2c1=O [Butyl BIT, 2n-butyl-1,2-benzisothiazolin-3-one] | 8 | 125 | 
2 | O=c1[nH]sc2ccccc12 [BIT, 1,2-benzisothiazolin-3-one] |  |  | 32
